Article PMC8286840, “Identifying SARS-CoV-2 antiviral compounds by screening for small molecule inhibitors of Nsp3 papain-like protease” (Biochemical Journal, 2021)
Counter-ions that a name gives are not always drawn. Like-named read-outs stand apart in the source and are kept apart here.

Tests used:
[1] = target: T1, SARS-CoV-2 PLpro (nsp3 1564–1878) (Severe acute respiratory syndrome coronavirus 2, UniProt P0DTD1); assay: biochemical; set-up: FRET-quenched peptide (Pro3) cleavage by PLpro, 10 min pre-incubation, slope over 20 min, normalised to no-compound control; conditions: low concentration screen, read-out: % of control remaining
[2] = target: T1, SARS-CoV-2 PLpro (nsp3 1564–1878); assay: biochemical; set-up: FRET-quenched peptide (Pro3) cleavage by PLpro, 10 min pre-incubation, slope over 20 min, normalised to no-compound control; conditions: high concentration screen, read-out: % of control remaining

In the case of `O=C(Nc1cc(Cl)cc(Cl)c1)[C@H]1CCCC[C@H]1C(=O)O` [(1R,2S)-VU0155041], the remaining activity at 1.25 µM ([1]; Well no.=8475) is reported as 99% and the remaining activity at 3.75 µM ([2]; Well no.=8475) is reported as 103%.

`COc1ccc(CCC(=O)Nc2nc3ccc(Cl)cc3s2)cc1OC` [KY02111] showed a remaining activity at 1.25 µM ([1]; Well no.=4782) of 105% and a remaining activity at 3.75 µM ([2]; Well no.=4782) of 98.2%.

Work on `CS(=O)(=O)CCNCc1ccc(-c2ccc3ncnc(Nc4ccc(OCc5cccc(F)c5)c(Cl)c4)c3c2)o1` [Lapatinib] yielded a remaining activity at 1.25 µM ([1]; Well no.=2983) of 94.8% and a remaining activity at 3.75 µM ([2]; Well no.=2983) of 92.8%.

`CCC(=O)N1CCN(c2ccc(-n3c(=O)ccc4cnc5ccc(-c6cnc7ccccc7c6)cc5c43)cc2C(F)(F)F)CC1` [Torin 1] gave a remaining activity at 1.25 µM ([1]; Well no.=4795) of 106% and a remaining activity at 3.75 µM ([2]; Well no.=4795) of 102%.

With `O=S(=O)(O)C1CCNCC1` [Piperidine-4-sulphonic acid] the remaining activity at 1.25 µM ([1]; Well no.=1449) was 99.5% and the remaining activity at 3.75 µM ([2]; Well no.=1449) was 94.6%.

In the case of `CC(C)OC(=O)C(C)(C)Oc1ccc(C(=O)c2ccc(Cl)cc2)cc1` [Fenofibrate], the remaining activity at 1.25 µM ([1]; Well no.=421) is reported as 97.6%, the remaining activity at 1.25 µM ([1]; Well no.=2084) is reported as 99.9% and the remaining activity at 3.75 µM ([2]; Well no.=421) is reported as 101%. For the same compound, the remaining activity at 3.75 µM ([2]; Well no.=2084) was 102%.

`CN1[C@@H]2CC[C@H]1C[C@@H](OC(=O)c1c[nH]c3ccccc13)C2` [Tropisetron] showed a remaining activity at 1.25 µM ([1]; Well no.=2008) of 99.1%, a remaining activity at 1.25 µM ([1]; Well no.=6607) of 103% and a remaining activity at 3.75 µM ([2]; Well no.=2008) of 101%.

With `O=C(NC(NC(=S)Nc1ccc(F)c([N+](=O)[O-])c1)C(Cl)(Cl)Cl)C(c1ccccc1)c1ccccc1` (racemic) the remaining activity at 1.25 µM ([1]; Well no.=2588) was 94.8% and the remaining activity at 3.75 µM ([2]; Well no.=2588) was 93.4%.

`CCCOC(=O)c1cc(O)c(O)c(O)c1` [N-Propyl gallate] showed a remaining activity at 1.25 µM ([1]; Well no.=3987) of 104% and a remaining activity at 3.75 µM ([2]; Well no.=3987) of 102%.

Compound `Cn1cc(/C=C2\C(=O)Nc3cccnc32)c2ccccc21` [GW 441756 - 1,3-Dihydro-3-[(1-methyl-1H-indol-3-yl)methylene]-2H-pyrrolo[3,2-b]pyridin-2-one] has a remaining activity at 1.25 µM ([1]; Well no.=2488) of 102% and a remaining activity at 3.75 µM ([2]; Well no.=2488) of 100%.

`CC(=O)NS(=O)(=O)c1ccc(N)cc1` [Sulfacetamide (Sodium)] gave a remaining activity at 1.25 µM ([1]; Well no.=7510) of 103% and a remaining activity at 3.75 µM ([2]; Well no.=7510) of 102%.

In the case of `COc1ccc2c(c1)c(CC(=O)Nc1ccc(NC(C)=O)cc1)c(C)n2C(=O)c1ccc(Cl)cc1` [N-(4-acetamidophenyl)indomethacinamide], the remaining activity at 1.25 µM ([1]; Well no.=343) is reported as 98.3% and the remaining activity at 3.75 µM ([2]; Well no.=343) is reported as 97.9%.

In the case of `CN1CCC(=C2c3ccccc3C=Cc3ccccc32)CC1` [Cyproheptadine (hydrochloride)], the remaining activity at 1.25 µM ([1]; Well no.=6994) is reported as 97.6% and the remaining activity at 3.75 µM ([2]; Well no.=6994) is reported as 99.7%.

`COc1ccc2c(c1)c(CC(=O)N1CCOCC1)c(C)n2C(=O)c1ccc(Cl)cc1` [Indomethacin morpholinylamide] showed a remaining activity at 1.25 µM ([1]; Well no.=971) of 94.6% and a remaining activity at 3.75 µM ([2]; Well no.=971) of 89.7%.

Work on `CCCC(=O)O` [Sodium butyrate] yielded a remaining activity at 1.25 µM ([1]; Well no.=4674) of 94.4% and a remaining activity at 3.75 µM ([2]; Well no.=4674) of 90%.

Work on `COc1ccc2[nH]cc(CCN)c2c1` [O-Methylserotonin hydrochloride] yielded a remaining activity at 1.25 µM ([1]; Well no.=1076) of 94% and a remaining activity at 3.75 µM ([2]; Well no.=1076) of 97%.

Compound `CCN(CC)C(=O)c1ccc(C2=CC3(CCNCC3)Oc3cccc(O)c32)cc1` [ADL5859 HCl] has a remaining activity at 1.25 µM ([1]; Well no.=5051) of 101% and a remaining activity at 3.75 µM ([2]; Well no.=5051) of 98.3%.

Work on `O=c1cc(-c2ccc(O)c(O)c2)oc2cc(O)cc(O)c12` [Luteolin] yielded a remaining activity at 1.25 µM ([1]; Well no.=837) of 96.9%, a remaining activity at 1.25 µM ([1]; Well no.=3318) of 97.2% and a remaining activity at 3.75 µM ([2]; Well no.=837) of 102%. It also gave a remaining activity at 3.75 µM ([2]; Well no.=3318) of 98.3%.

For `O=c1[nH]cnc2c1ncn2[C@H]1C[C@H](O)[C@@H](CO)O1` [2'-Deoxyinosine], the remaining activity at 1.25 µM ([1]; Well no.=7497) was 106%, the remaining activity at 1.25 µM ([1]; Well no.=7712) was 95% and the remaining activity at 3.75 µM ([2]; Well no.=7497) was 105%. For the same compound, the remaining activity at 3.75 µM ([2]; Well no.=7712) was 96.3%.

`C[C@H](NC(=O)C(C)(C)Oc1ccc(C(F)(F)F)cn1)[C@@H](Cc1ccc(Cl)cc1)c1cccc(C#N)c1` [Taranabant] was tested, and the remaining activity at 1.25 µM ([1]; Well no.=7147) was 103% and the remaining activity at 3.75 µM ([2]; Well no.=7147) was 87.5%.

Compound `O=C(O)[C@@H]1CCCN1` [L-Proline] has a remaining activity at 1.25 µM ([1]; Well no.=7737) of 105%, a remaining activity at 1.25 µM ([1]; Well no.=8324) of 101% and a remaining activity at 3.75 µM ([2]; Well no.=7737) of 108%. For the same compound, the remaining activity at 3.75 µM ([2]; Well no.=8324) was 97.3%.

`CCNC1(C(N)=O)CCN(c2ncnc3c2nc(-c2ccccc2Cl)n3-c2ccc(Cl)cc2)CC1` [Otenabant] gave a remaining activity at 1.25 µM ([1]; Well no.=8393) of 93.1% and a remaining activity at 3.75 µM ([2]; Well no.=8393) of 87.6%.

Work on `CC(C)[C@H](NC(=O)OCc1ccccc1)C(=O)N[C@@H](CC(=O)O)C(=O)CF` [EP1013] yielded a remaining activity at 1.25 µM ([1]; Well no.=6886) of 96.4% and a remaining activity at 3.75 µM ([2]; Well no.=6886) of 96.6%.

`NC(N)=NC(=O)c1nc(Cl)c(N2CCCCCC2)nc1N` [5-(N,N-hexamethylene)amiloride] was tested, and the remaining activity at 1.25 µM ([1]; Well no.=106) was 104% and the remaining activity at 3.75 µM ([2]; Well no.=106) was 104%.

Compound `CCCCCCCCCCCCCCCCCC(=O)NCC(COP(=O)([O-])OCC[N+](C)(C)C)OCC` (racemic) [rac-2-Ethoxy-3-octadecanamido-1-propylphosphocholine] has a remaining activity at 1.25 µM ([1]; Well no.=413) of 102% and a remaining activity at 3.75 µM ([2]; Well no.=413) of 101%.

`O=c1ccn([C@@H]2O[C@H](CO)[C@@H](O)[C@H]2O)c(=O)[nH]1` [Uridin] was tested, and the remaining activity at 1.25 µM ([1]; Well no.=8849) was 101%, the remaining activity at 3.75 µM ([2]; Well no.=6399) was 106% and the remaining activity at 3.75 µM ([2]; Well no.=8849) was 94.8%.

In the case of `CCC(=O)Nc1ccc2ncnc(Nc3cccc(Br)c3)c2c1` [PD 174265], the remaining activity at 1.25 µM ([1]; Well no.=2501) is reported as 101% and the remaining activity at 3.75 µM ([2]; Well no.=2501) is reported as 98.5%.

Work on `COc1cc2c(N3CCN(C(=O)Nc4ccc(OC(C)C)cc4)CC3)ncnc2cc1OCCCN1CCCCC1` [Tandutinib] yielded a remaining activity at 1.25 µM ([1]; Well no.=2851) of 104% and a remaining activity at 3.75 µM ([2]; Well no.=2851) of 104%.

`Cc1[nH]c2ccc(O)cc2c1CCN` [2-Methyl-5-hydroxytryptamine maleate] was tested, and the remaining activity at 1.25 µM ([1]; Well no.=847) was 102% and the remaining activity at 3.75 µM ([2]; Well no.=847) was 102%.

`CCc1nc2c(C)nc(C)cc2n1-c1ccc(CCNC(=O)NS(=O)(=O)c2ccc(C)cc2)cc1` [Grapiprant] showed a remaining activity at 1.25 µM ([1]; Well no.=6998) of 97.1% and a remaining activity at 3.75 µM ([2]; Well no.=6998) of 95.9%.

In the case of `CCn1c(=O)c2c(nc(/C=C/c3ccc(OC)c(OC)c3)n2C)n(CC)c1=O` [Istradefylline (KW-6002)], the remaining activity at 1.25 µM ([1]; Well no.=5121) is reported as 106% and the remaining activity at 3.75 µM ([2]; Well no.=5121) is reported as 110%.

In the case of `CN1C(C(=O)Nc2ccccn2)=C(O)c2sccc2S1(=O)=O` [Tenoxicam], the remaining activity at 1.25 µM ([1]; Well no.=2299) is reported as 98.3% and the remaining activity at 3.75 µM ([2]; Well no.=2299) is reported as 101%.

`COc1ccc(C(=O)/C=C/c2cc(OC)c(OC)c(OC)c2)cc1OC` [MD2-IN-1] gave a remaining activity at 1.25 µM ([1]; Well no.=8739) of 100% and a remaining activity at 3.75 µM ([2]; Well no.=8739) of 95.8%.
